According to US20200261434A1, “IDH1 INHIBITORS FOR THE TREATMENT OF HAEMATOLOGICAL MALIGNANCIES AND SOLID TUMORS” (Agios Pharmaceuticals, Inc., priority 2016, published 2020):
Positions count from the first letter of the chain named. Converted amounts (≈) assume the structure as drawn.

How the values were obtained:
IDH2 R140Q = biological target: T1, IDH2 R140Q (Homo sapiens, UniProt P48735, R140Q); assay: Phase 1/2 clinical study AG221-C-001, pharmacodynamic response (2-HG plasma levels), R140Q subjects; format: in vivo; settings: most subjects with R140Q mutation, all doses, by Day 1 of Cycle 2
T1 construct: endogenous in cells; host or cells: malignant haematologic cells of human subjects (in vivo; 2-HG measured in plasma)
T1 sequence (P48735 40-452 R140Q): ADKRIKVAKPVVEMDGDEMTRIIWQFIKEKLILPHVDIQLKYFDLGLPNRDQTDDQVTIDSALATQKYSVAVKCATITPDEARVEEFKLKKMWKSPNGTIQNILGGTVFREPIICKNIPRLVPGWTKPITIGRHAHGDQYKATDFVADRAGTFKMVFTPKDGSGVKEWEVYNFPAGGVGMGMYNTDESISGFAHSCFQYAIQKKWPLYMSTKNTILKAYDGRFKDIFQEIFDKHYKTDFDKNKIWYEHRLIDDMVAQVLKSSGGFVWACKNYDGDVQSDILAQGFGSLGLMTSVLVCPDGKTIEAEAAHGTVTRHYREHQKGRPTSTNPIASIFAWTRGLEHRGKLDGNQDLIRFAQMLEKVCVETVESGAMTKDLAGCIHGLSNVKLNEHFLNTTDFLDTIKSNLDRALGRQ
Description: (§1) Three days prior to the start of daily dosing of AG-221 (Day −3), the first 3 subjects enrolled in each cohort in the dose escalation phase and the first 15 subjects enrolled in each arm of Part 1 Expansion will receive a single dose of AG-221 in clinic and have serial blood and urine samples obtained for determination of blood and urine concentrations of AG-221, its metabolite AGI-16903, 2-HG, and α-KG. A full 72-hour PK/PD profile will be conducted: subjects will be required to remain at the study site for 10 hours on Day −3 and return on Days −2, −1, and 1 for 24-, 48-, and 72-hour samples, respectively. During the in-clinic period on Day −3, clinical observation and serial 12-lead ECGs and vital signs assessments will be conducted.
(§2) Subjects in the dose escalation phase and Part 1 Expansion also will undergo PK/PD assessments over a 10-hour period on C1D15, C2D1, and C4D1. […] These subjects will have urine collected for PK/PD evaluation at screening; prior to dosing on C1D15, C2D1 and Day 1 of all cycles thereafter; and at the End of Treatment visit. Available bone marrow biopsy samples also will be assessed for 2-HG and α-KG levels.
(§3) Serial blood sampling for determination of concentration-time profiles of COMPOUND 1 and its metabolite (6-(6-(trifluoromethyl)pyridin-2-yl)-N2-(2-(trifluoromethyl)pyridin-4-yl)-1,3,5-triazine-2,4-diamine). […]

IDH2 R172K = biological target: T2, IDH2 R172K (Homo sapiens, UniProt P48735, R172K); assay: Phase 1/2 clinical study AG221-C-001, pharmacodynamic response (2-HG), R172K subjects; format: in vivo; settings: subjects with R172K mutation
T2 construct: endogenous in cells; host or cells: malignant haematologic cells of human subjects (in vivo; 2-HG measured in blood)
T2 sequence (P48735 40-452 R172K): T1 sequence (P48735 40-452 R140Q) with Q101R, R133K
Description: as §1, §2, §3

[1] = test system: advanced hematologic malignancies with an IDH2 mutation; assay: Phase 1/2 clinical study AG221-C-001, clinical activity (overall response rate); format: in vivo, human; settings: 44 subjects treated at 100 mg QD, preliminary efficacy data
Description: Response to treatment and treatment decisions in all subjects will be determined by the Investigators based on modified International Working Group (IWG) response criteriaor other appropriate response criteria for the malignancy under study.
Overall response rate (ORR), the primary efficacy endpoint, is defined as the rate of responders including complete remission (CR), CR with incomplete platelet recovery (CRp), marrow CR (mCR) (morphologic leukemia-free state [MLFS] for subjects with AML), CR with incomplete hematologic recovery (CRi), and partial remission (PR). Other measures of clinical activity including complete remission rate (CRR), duration of remission/response, event-free survival, overall survival, and time to remission/response will be summarized.
For Phase 1 Dose Escalation/Part 1 Expansion, the efficacy analysis of response rates as assessed by the site Investigators using modified International Working Group (IWG) response criteria will be conducted in Full Analysis Set for each dose level, expansion arm, and overall if appropriate.

[2] = Phase 1/2 clinical study AG221-C-001, safety; format: in vivo, human; settings: 100 mg
Description: Toxicity severity will be graded according to the National Cancer Institute Common Terminology Criteria for Adverse Events (NCI CTCAE) Version 4.03. A DLT is defined as outlined below.
Monitoring of AEs, including determination of DLTs, serious adverse events (SAEs), and AEs leading to discontinuation; safety laboratory parameters; physical examination findings; vital signs; 12-lead ECGs; LVEF; and ECOG PS.
The severity of AEs will be assessed by the NCI CTCAE, Version 4.03.

[3] = solubility in fasted state simulated intestinal fluid (FASSIF); format: physicochemical; settings: pH 6.1, at 4 hours

CC(C)(O)CNc1nc(Nc2ccnc(C(F)(F)F)c2)nc(-c2cccc(C(F)(F)F)n2)n1 [COMPOUND 1, 2-methyl-1-[(4-[6-(trifluoromethyl)pyridin-2-yl]-6-{[2-(trifluoromethyl)pyridin-4-yl]amino}-1,3,5-triazin-2-yl)amino]propan-2-ol]
inhibition of 2-HG plasma levels (IDH2 R140Q): up to 98%
inhibition of 2-HG and exposure, dependence on dose (IDH2 R172K): Increasing dose is associated with higher exposure and inhibition of 2-HG
overall response rate [1]: 36.4%
safety profile, including ≥Grade 3 [2]: consistent with that of lower doses

N#Cc1ccnc(N2C(=O)CC[C@H]2C(=O)N(c2cncc(F)c2)[C@H](C(=O)NC2CC(F)(F)C2)c2ccccc2Cl)c1 [Form 2, (S)—N—((S)-1-(2-chlorophenyl)-2-((3,3-difluorocyclobutyl)amino)-2-oxoethyl)-1-(4-cyanopyridin-2-yl)-N-(5-fluoropyridin-3-yl)-5-oxopyrrolidine-2-carboxamide]
solubility at 4 h [3]: ~18 µg/mL (≈ 30.9 µM)
